Here are results for 18 compounds from article PMC6278313.

A short description of data set [1]: Measured logD of radioligands (n-octanol / sodium phosphate buffer). Type of data set: physicochemical. Particulars: n-octanol / sodium phosphate buffer 0.1 M pH 7.4; γ-counter. On the procedure: cLogD (at pH 7.4) values were computed with Pallas for Windows software version 3.8 in default mode (CompuDrug International; Bal Harbor, FL, USA). The logD values of [^11C]17, [^18F]20, and [d2-^18F]27 were measured by a method that we have described previously. The radioactivity contents in the n-octanol and sodium phosphate buffer (0.1 M; pH 7.4) phases were determined with a γ-counter.

Data set [2] deals with T1, COX-1 (Homo sapiens, UniProt P23219). Nature of the data set: COX-1 inhibition, human whole blood (Thromboxane B2 EIA).
Method: (§1) Thromboxane B2 EIA kit (COX-1) and Prostaglandin E2 EIA Kit (COX-2) were purchased from Cayman Chemicals, USA [45]. Blood from non-treated rhesus monkey and healthy human subjects was used with these ELISA kits to establish the inhibitory potencies (IC50’s) of test compounds for these enzymes [46]. Thromboxane, the product of COX-1, and prostaglandin E2, the product of COX2, were measured using 96-well plates and a UV spectrophotometer. The concentration-inhibition curves were fitted into a 4-parameter non-linear regression model in GraphPad Prism to calculate the IC50 of each test compound.
Data set [3] deals with T2, COX-2 (Macaca mulatta, UniProt F7BWZ9).
T2 sequence (F7BWZ9 18-604): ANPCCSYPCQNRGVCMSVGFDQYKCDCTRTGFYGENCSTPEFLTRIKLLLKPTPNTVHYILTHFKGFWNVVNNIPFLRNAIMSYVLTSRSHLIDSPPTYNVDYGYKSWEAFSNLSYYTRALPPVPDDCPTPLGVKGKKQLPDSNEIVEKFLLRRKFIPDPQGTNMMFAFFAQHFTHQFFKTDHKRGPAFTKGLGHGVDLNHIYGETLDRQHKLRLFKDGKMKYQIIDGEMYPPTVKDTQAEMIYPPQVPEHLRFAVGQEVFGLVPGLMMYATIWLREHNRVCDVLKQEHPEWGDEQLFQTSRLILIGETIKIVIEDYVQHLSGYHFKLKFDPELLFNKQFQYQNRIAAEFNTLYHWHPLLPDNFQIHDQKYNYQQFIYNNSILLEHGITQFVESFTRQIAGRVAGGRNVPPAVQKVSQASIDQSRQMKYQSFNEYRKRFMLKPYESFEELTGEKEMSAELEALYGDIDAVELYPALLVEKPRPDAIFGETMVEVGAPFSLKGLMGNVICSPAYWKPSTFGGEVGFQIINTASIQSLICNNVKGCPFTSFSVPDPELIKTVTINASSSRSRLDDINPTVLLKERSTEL
Nature of the data set: COX-2 inhibition, monkey whole blood (Prostaglandin E2 EIA).
Method: as §1

Data set [4] addresses T3, COX-1 (Macaca mulatta, UniProt F6S984).
T3 sequence (F6S984 25-599): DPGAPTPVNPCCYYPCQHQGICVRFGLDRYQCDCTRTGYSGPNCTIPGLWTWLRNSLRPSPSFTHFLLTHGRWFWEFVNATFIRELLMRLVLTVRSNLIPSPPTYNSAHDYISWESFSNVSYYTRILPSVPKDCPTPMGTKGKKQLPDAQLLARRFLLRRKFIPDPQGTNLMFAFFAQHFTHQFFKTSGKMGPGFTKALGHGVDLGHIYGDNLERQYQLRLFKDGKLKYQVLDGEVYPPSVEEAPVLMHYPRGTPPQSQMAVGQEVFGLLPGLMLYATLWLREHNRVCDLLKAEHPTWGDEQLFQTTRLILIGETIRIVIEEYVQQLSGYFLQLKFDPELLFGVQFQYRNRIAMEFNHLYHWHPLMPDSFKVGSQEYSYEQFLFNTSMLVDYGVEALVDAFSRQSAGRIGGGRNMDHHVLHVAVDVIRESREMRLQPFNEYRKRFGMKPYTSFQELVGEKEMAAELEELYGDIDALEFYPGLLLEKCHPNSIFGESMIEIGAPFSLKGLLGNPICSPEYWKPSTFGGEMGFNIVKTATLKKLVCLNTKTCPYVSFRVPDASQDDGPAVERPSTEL
The data set can be described thus: COX-1 inhibition, monkey whole blood (Thromboxane B2 EIA).
Method: as §1

In data set [5] the target is T4, COX-2 (Homo sapiens, UniProt P35354).
T4 construct: endogenous in cells; host or cells: fresh human whole blood
T4 sequence (P35354 18-604): T2 sequence (F7BWZ9 18-604) with Y7H, L49F, V101A, F150L, T163S, K191N, D208A, H211R, N363T, R570G
Nature of the data set: COX-2 inhibition, human whole blood (Prostaglandin E2 EIA). Type of data set: cell-based.

For a further data set, the system named is human COX-2. Particulars: cited from earlier work; for Selectivity vs. COX-1: human whole blood, COX-2 over COX-1.
Data set [6] concerns the target T1, COX-1. Also on record: endogenous in cells; host or cells: fresh human whole blood. Particulars: footnote c; SE <15%; read-out: IC50 COX-1 Human WB (literature); cited from earlier work.
Data set [7] deals with all tested receptors, transporters, and binding sites. The data set can be described thus: NIMH-PDSP radioligand binding screen, whole panel. The conditions noted are these: 10 μM; except the sites named for 17 and 27.
Data set [8] has as its system COX-2. Particulars: cited from earlier work.
The target in data set [9] is COX-2. Also on record: method as in literature cited in the text (18-30). Particulars: cited from earlier work.
The mark [10] stands for this setting: mean ± SD, triplicate unless d n = 1, e n = 2, read-out: IC50 COX-2 Human WB.
Setting [11] is: Table 1, human whole blood COX-2, SEM <15%, read-out: HWB IC50.
The mark [12] stands for this setting: footnote c, SE <15%, read-out: IC50 COX-2 Human WB (literature) (converted).
[13] abbreviates: Chart 1, PET in vivo, ref literature cited in the text (18-30).
The mark [14] stands for this setting: Chart 1, ref literature cited in the text (18-30).

Residue numbers refer to the chain shown, from its start. Like-named read-outs stand apart in the source and are kept apart here.

T1 sequence (P23219 24-599): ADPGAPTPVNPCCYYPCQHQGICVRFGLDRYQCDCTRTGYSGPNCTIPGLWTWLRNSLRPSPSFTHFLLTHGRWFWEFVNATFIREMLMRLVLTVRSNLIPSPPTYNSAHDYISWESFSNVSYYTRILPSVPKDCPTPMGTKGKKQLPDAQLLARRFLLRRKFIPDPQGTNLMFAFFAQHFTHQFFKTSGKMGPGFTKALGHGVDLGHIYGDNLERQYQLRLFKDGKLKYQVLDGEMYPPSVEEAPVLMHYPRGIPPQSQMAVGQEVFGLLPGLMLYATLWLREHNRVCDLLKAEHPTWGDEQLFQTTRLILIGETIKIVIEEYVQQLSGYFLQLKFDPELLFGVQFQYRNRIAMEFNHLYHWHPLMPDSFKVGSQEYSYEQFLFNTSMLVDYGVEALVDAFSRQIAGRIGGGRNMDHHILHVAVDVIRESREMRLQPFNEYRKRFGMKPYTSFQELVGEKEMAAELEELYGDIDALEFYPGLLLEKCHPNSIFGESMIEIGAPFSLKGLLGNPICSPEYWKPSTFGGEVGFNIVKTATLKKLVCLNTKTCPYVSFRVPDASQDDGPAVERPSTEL

The compound `CS(=O)(=O)c1ccc(-c2nc(NCc3cccs3)cc(O[11CH3])n2)cc1` [[^11C]17] gave a logD in data set [1] of 3.74 ± 0.02.

Compound `CSc1cc(NCc2cccs2)nc(-c2ccc(S(C)(=O)=O)cc2)n1` [Compound 21, 6-Thiomethyl-2-(4-(methylsulfonyl)phenyl)-N-(thiophen-2-ylmethyl)pyrimidin-4-amine] yielded a melting point of 159.1 to 160.4 °C. Also, the IC50 at COX-1 [2] is above 1000 nM. Besides, the IC50 on COX-2 [3] turned out to be 4.83 ± 2.31 nM. On COX-1 [4], this compound displayed an IC50 above 1000 nM. In addition, the IC50 at COX-2 [5] (setting [10]) stood at 2.65 ± 0.45 nM.

Compound `CCSc1cc(NCc2cccs2)nc(-c2ccc(S(C)(=O)=O)cc2)n1` [Compound 19, 6-Thioethyl-2-(4-(methylsulfonyl)phenyl)-N-(thiophen-2-ylmethyl)pyrimidin-4-amine] came in with a melting point of 160 to 162.1 °C. In addition, the half-maximal inhibitory concentration (IC50) against COX-1 [2] was above 1000 nM. Moreover, the IC50 at COX-2 [3] stood at 52.3 ± 0.01 nM. The compound further registered a concentration for half-maximal inhibition (IC50) on COX-1 [4] above 1000 nM. Also, the IC50 with human COX-2 (setting [11]) is 1.2 nM. For the same compound, the IC50 in the data set on human COX-2 (setting [12]) is 1.2 nM. The “Selectivity vs. COX-1” value with human COX-2 is above 8403. For the same compound, the IC50 on COX-2 [5] (setting [10]) stood at 3.52 ± 0.43 nM. For the same compound, the IC50 on COX-1 [6] was above 10000 nM.

Take `CCOc1cc(NCc2cccs2)nc(-c2ccc(S(C)(=O)=O)cc2)n1` [Compound 18, 6-Ethoxy-2-(4-(methylsulfonyl)phenyl)-N-(thiophen-2-ylmethyl)pyrimidin-4-amine]: the melting point was 169.2 to 170.4 °C. The same compound yielded an IC50 against COX-1 [2] above 10000 nM. The “inhibition of radioligand binding at all tested receptors, transporters, and binding sites” value in data set [7] is on record as “less than 50%”.

Consider `CS(=O)(=O)c1ccc(-c2nc(F)cc(NCc3cccs3)n2)cc1` [Compound 29, 6-Fluoro-2-(4-(methylsulfonyl)phenyl)-N-(thiophen-2-ylmethyl)pyrimidin-4-amine], for which the melting point fell in the range of 130.4 to 131.4 °C. On COX-2 [5] (setting [10]), the IC50 is 2.5 nM.

Take `CS(=O)(=O)c1ccc(-c2nc(O)cc(NCc3cccs3)n2)cc1` [Compound 26, 2-(4-(Methylsulfonyl)phenyl)-6-(thiophen-2-yl-methylamino)pyrimidin-4-ol]: the melting point was in the range of 261.7 to 263.2 °C. In addition, the “inhibitory potency for COX-2” value in the data set on human COX-2 was “low inhibitory potency”. Also, on COX-1 [6], the half-maximal inhibitory concentration (IC50) is above 100000 nM.

`[11CH3]Oc1ccc(-c2c(-c3ccc(S(N)(=O)=O)cc3)[nH]c3ccccc23)cc1` [[^11C]7]: the brain entry result in the data set with COX-2 [8] (setting [13]) was “Low rat brain uptake”.

With `[11CH3]Oc1ccc(-c2cc(C(F)(F)F)nn2-c2ccc(S(N)(=O)=O)cc2)cc1` [[^11C]2], the brain entry result in the data set with COX-2 [8] (setting [13]) is given as “Low brain penetration”.

In the case of `CS(=O)(=O)c1ccc(-c2nc(Cl)cc(NCc3cccs3)n2)cc1` [Compound 25, 6-Chloro-2-(4-(methylsulfonyl)phenyl)-N-(thiophen-2-ylmethyl)pyrimidin-4-amine], the melting point lay in the range of 170 to 171.2 °C. Moreover, on COX-1 [2], the IC50 is above 10000 nM. For the same compound, the IC50 in the data set with human COX-2 (setting [11]) was 1.2 nM. Besides, in the data set with human COX-2 (setting [12]), the IC50 is 1.2 nM. Also, the IC50 at COX-1 [6] is above 100000 nM.

In the case of `CS(=O)(=O)c1ccc(-c2nc(NCc3cccs3)cc(OCCF)n2)cc1` [Compound 20, 6-(2-Fluoroethoxy)-2-(4-(methylsulfonyl)phenyl)-N-(thiophen-2-ylmethyl)pyrimidin-4-amine], the melting point is 147.7 to 149.2 °C. In addition, half-maximal inhibition against COX-2 [3] (IC50) was put at 1.28 nM. Besides, the IC50 on COX-2 [5] (setting [10]) was determined as 1.9 nM.

As to `COc1cc(NCc2ccccc2)nc(-c2ccc(S(C)(=O)=O)cc2)n1` [Compound 22, N-Benzyl-6-methoxy-2-(4-(methylsulfonyl)phenyl)pyrimidin-4-amine], the melting point was in the range of 133.4 to 134.6 °C. The 50% inhibitory concentration (IC50) against COX-1 [2] was above 1000 nM. On COX-2 [3], the IC50 stood at 14.6 ± 10.1 nM. On COX-1 [4], this compound returned an IC50 above 1000 nM. In addition, the “Selectivity vs. COX-1” value with human COX-2 is recorded as >19,646. In addition, in the data set with human COX-2 (read-out: HWB IC50), the IC50 was 5.1 nM. For the same compound, in the data set with human COX-2 (read-out: IC50 COX-2 Human WB (literature) (converted)), the concentration for half-maximal inhibition (IC50) was 5.1 nM. The compound also yielded an IC50 on COX-2 [5] of 7.35 ± 1.35 nM. The IC50 on COX-1 [6] was above 100000 nM.

The compound `CS(=O)(=O)c1ccc(-c2nc(Cl)cc(NCc3ccccc3)n2)cc1` [Compound 23, N-Benzyl-6-chloro-2-(4-(methylsulfonyl)phenyl)pyrimidin-4-amine] gave a melting point of 130.4 to 131.4 °C. For the same compound, the IC50 on COX-1 [6] was above 100000 nM.

As to `NS(=O)(=O)c1ccc(-c2c(-c3ccccc3)noc2C[18F])cc1` [[^18F]5], the Ki on COX-2 [9] is 2 nM. Besides, in the data set on COX-2 [8] (in vivo), the brain entry entry is recorded as “Some brain entry”, the defluorination in vivo result is reported as “Rapidly defluorinated” and the “specific signal / specific binding in vivo” value is reported as “No brain specific signal”.

`[11CH3]S(=O)(=O)c1ccc(C2=C(c3ccccc3)C(=O)OC2)cc1` [[^11C]4, [^11C]rofecoxib]: in the data set with COX-2 [8] (in vivo), the brain entry entry is given as “Low brain entry”, the “brain entry (SUV)” value is 0.26 SUV and the “specific signal / specific binding in vivo” value is “No specific binding in rat inflammatory models”.

As for `[11CH3]Oc1ccc(-c2cncn2-c2ccc(S(N)(=O)=O)cc2)cc1` [[^11C]6], at COX-2 [9] (setting [14]), the Ki was 5 nM. Besides, in the data set with COX-2 [8] (setting [13]), the brain entry entry is listed as “Low brain uptake”.

On to `CS(=O)(=O)c1ccc(-c2nc(O)cc(NCc3ccccc3)n2)cc1` [Compound 24, 6-(Benzylamino)-2-(4-(methylsulfonyl)phenyl)pyrimidin-4-ol], for which the melting point lay within 287.9 to 289.2 °C. The same compound registered an IC50 at COX-1 [2] above 1000 nM. At COX-2 [3], this compound displayed an IC50 above 1000 nM. In addition, the IC50 at COX-1 [4] is above 1000 nM. In addition, in the data set with human COX-2, the “inhibitory potency for COX-2” value is given as “low inhibitory potency”. Besides, at COX-1 [6], the IC50 was above 100000 nM.

As to `Cc1ccc(-c2cc(C(F)(F)F)nn2-c2ccc(S(=O)(=O)Nc3cccc([18F])c3)cc2)cc1` [[^18F]3], the Ki at COX-2 [9] (setting [14]) was 250 nM.

As for `CN(Cc1cccs1)c1cc(Cl)nc(-c2ccc(S(C)(=O)=O)cc2)n1` [Compound 30, 6-Chloro-N-methyl-2-(4-(methylsulfonyl)phenyl)-N-(thiophen-2-ylmethyl)pyrimidin-4-amine], the “inhibition of radioligand binding at all tested receptors, transporters, and binding sites” value in data set [7] is “less than 50%”. The IC50 at COX-2 [5] (setting [10]) was above 1000 nM.

One may read the logD as the decadic logarithm of the distribution of all forms, ionised or not, between an organic phase and buffer at a given pH. One may read the IC50 as the concentration at which inhibition is half-maximal. Usually melting point stands for the temperature of the solid-liquid transition. By Ki is commonly meant the dissociation constant of the complex between target and ligand, obtained from inhibition or displacement.
